Measurements as given in ChEMBL document CHEMBL3856231 (J Med Chem, 2016).

Columns and labels:
[1] = Half life in human liver microsomes by LC/MS/MS analysis; format: ADME
[2] = target: T1, ALK tyrosine kinase receptor (Homo sapiens, UniProt Q9UM73); test: Inhibition of human ALK expressed in baculovirus using recombinant GST PLC-gamma as substrate assessed as phosphorylation of the substrate after 15 mins by TRF assay
Target sequence in this assay (Q9UM73 whole entry): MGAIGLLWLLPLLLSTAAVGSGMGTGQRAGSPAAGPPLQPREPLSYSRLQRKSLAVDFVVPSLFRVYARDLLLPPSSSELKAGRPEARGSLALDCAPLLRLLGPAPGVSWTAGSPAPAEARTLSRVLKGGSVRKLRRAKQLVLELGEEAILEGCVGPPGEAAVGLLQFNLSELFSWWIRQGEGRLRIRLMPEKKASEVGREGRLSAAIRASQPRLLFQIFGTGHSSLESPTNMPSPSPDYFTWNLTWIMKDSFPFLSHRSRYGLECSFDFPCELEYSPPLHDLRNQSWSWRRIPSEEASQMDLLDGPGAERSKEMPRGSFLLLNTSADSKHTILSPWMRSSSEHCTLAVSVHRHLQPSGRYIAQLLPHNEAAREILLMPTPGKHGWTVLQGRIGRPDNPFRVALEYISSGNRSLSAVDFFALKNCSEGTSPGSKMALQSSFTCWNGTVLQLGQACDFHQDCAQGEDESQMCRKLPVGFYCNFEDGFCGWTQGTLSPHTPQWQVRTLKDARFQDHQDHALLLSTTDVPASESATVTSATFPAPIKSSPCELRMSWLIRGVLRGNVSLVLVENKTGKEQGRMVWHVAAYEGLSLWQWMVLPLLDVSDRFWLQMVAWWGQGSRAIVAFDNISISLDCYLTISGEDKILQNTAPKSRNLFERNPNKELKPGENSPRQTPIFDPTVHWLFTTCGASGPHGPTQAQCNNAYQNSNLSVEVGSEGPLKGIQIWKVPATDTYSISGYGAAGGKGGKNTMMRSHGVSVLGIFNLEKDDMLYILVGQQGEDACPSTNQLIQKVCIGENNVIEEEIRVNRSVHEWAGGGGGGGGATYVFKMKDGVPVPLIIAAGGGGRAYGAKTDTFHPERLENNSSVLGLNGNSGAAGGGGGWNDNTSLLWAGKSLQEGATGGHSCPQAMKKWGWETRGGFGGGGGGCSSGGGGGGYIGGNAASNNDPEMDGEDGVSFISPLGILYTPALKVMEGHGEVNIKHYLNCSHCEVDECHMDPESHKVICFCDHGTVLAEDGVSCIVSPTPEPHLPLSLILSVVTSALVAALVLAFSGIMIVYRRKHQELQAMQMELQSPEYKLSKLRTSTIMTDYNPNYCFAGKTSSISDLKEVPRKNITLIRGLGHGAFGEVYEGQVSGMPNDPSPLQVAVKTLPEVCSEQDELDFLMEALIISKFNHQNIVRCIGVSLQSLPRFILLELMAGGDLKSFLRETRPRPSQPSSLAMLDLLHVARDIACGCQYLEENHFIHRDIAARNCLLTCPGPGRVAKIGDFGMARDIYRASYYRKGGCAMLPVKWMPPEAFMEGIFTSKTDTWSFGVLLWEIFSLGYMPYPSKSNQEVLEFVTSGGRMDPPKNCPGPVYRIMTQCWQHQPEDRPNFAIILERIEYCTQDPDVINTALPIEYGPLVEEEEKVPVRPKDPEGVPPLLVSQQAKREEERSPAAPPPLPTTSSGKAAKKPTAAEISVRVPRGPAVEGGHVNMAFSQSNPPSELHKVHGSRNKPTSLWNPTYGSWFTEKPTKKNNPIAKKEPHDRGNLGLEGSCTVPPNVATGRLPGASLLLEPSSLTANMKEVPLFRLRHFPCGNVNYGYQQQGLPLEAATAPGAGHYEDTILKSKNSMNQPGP

[3] = Half life in rat liver microsomes by LC/MS/MS analysis; format: ADME
[4] = Drug level in human liver microsomes treated with (1S,2S,3R,4R)-3-(5-chloro-2-((S)-1-methoxy-7-morpholino-6,7,8,9-tetrahydro-5H-benzo[7]annulen-2-ylamino)pyrimidin-4-ylamino)bicyclo[2.2.1]hept-5-ene-2-carboxamide at 10 uM after 120 mins in presence of NADPH by LC/MS/MS analysis; format: ADME; settings: 2 h
[5] = Drug level in rat liver microsomes treated with (1S,2S,3R,4R)-3-(5-chloro-2-((S)-1-methoxy-7-morpholino-6,7,8,9-tetrahydro-5H-benzo[7]annulen-2-ylamino)pyrimidin-4-ylamino)bicyclo[2.2.1]hept-5-ene-2-carboxamide at 10 uM after 120 mins in presence of NADPH by LC/MS/MS analysis; format: ADME; settings: 2 h
[6] = target: Insulin receptor (Homo sapiens, UniProt P06213)
[7] = target: Voltage-gated inwardly rectifying potassium channel KCNH2 (Homo sapiens, UniProt Q12809); test: Inhibition of human ERG
[8] = Oral bioavailability in Sprague-Dawley rat at 5 mg/kg by LC/MS/MS analysis; format: ADME, organism-based; settings: in vivo
[9] = target: T1, ALK tyrosine kinase receptor; test: Inhibition of NPM-ALK phosphorylation in human SUP-M2 cells after 2 to 3 hrs by ELISA; format: cell-based
Target sequence in this assay (Q9UM73 19-1620 limits assumed): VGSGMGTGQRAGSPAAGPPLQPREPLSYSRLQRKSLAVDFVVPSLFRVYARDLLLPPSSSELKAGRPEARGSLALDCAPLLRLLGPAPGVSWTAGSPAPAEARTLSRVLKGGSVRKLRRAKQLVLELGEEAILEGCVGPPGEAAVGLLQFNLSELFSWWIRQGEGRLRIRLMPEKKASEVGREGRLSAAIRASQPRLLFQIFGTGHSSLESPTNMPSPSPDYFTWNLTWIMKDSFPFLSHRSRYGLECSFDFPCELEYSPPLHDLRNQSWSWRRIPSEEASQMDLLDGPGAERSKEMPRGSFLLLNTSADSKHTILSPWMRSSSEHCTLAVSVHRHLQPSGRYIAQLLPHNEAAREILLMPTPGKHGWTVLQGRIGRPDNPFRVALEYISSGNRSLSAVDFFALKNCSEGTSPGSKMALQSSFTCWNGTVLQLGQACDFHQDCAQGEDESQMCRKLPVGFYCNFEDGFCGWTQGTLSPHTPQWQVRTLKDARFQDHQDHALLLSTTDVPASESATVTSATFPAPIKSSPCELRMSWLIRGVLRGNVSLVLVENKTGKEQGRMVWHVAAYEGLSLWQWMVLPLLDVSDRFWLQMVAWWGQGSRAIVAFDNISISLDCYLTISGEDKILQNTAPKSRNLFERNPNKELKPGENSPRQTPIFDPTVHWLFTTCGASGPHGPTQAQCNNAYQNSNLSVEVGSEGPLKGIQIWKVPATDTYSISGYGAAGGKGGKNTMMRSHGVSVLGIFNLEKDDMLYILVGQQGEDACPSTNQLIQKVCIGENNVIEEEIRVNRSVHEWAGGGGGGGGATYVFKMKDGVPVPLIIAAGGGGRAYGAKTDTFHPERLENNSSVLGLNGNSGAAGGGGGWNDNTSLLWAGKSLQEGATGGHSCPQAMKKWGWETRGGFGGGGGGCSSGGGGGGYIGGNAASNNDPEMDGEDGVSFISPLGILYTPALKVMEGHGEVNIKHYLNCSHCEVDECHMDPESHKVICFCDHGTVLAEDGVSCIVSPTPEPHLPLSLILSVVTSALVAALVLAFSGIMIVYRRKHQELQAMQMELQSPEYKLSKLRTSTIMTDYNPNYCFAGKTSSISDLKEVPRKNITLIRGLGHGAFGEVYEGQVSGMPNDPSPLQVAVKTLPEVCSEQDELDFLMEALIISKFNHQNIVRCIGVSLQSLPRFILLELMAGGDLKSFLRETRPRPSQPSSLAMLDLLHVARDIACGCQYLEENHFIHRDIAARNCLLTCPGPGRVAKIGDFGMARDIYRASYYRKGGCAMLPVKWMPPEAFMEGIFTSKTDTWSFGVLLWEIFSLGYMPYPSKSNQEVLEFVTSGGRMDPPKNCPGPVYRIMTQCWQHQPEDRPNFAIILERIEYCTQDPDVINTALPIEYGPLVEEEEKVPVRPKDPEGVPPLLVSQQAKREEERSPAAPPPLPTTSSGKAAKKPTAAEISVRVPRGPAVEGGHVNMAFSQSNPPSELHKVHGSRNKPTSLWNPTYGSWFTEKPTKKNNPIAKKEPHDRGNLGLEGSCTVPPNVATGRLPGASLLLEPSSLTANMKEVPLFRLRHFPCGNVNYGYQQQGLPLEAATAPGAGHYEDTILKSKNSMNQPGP

[10] = Half life in CD-1 mouse liver microsomes by LC/MS/MS analysis; format: ADME
[11] = target: T2, Cytochrome P450 1A2 (Homo sapiens, UniProt P05177); test: Inhibition of CYP1A2 in human liver microsomes using phenacetin as substrate in presence of NADPH by LC/MS/MS analysis; format: ADME
T2 sequence (P05177 whole entry): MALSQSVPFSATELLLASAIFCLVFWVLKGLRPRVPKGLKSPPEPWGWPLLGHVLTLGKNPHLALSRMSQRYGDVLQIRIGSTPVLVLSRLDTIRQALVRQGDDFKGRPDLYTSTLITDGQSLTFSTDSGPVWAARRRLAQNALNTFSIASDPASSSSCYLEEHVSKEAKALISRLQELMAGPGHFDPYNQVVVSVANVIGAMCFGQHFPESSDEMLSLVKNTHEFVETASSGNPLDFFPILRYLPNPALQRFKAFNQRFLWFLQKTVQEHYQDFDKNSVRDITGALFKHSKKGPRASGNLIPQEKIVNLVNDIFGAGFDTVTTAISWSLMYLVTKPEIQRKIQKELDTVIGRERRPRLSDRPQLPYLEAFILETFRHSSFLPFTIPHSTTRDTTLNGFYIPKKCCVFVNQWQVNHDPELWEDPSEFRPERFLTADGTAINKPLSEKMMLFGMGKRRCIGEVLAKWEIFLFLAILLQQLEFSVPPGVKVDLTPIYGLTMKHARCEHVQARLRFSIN

[12] = AUC (0 to infinity) in Sprague-Dawley rat at 5 mg/kg, po by LC/MS/MS analysis; format: ADME, organism-based; design: dose 5 mg/kg, time infinity, route oral; settings: in vivo
[13] = target: Cytochrome P450 2C19 (Homo sapiens, UniProt P33261); test: Inhibition of CYP2C19 in human liver microsomes using S-mephenytoin as substrate in presence of NADPH by LC/MS/MS analysis; format: ADME
[14] = target: Cytochrome P450 2C9 (Homo sapiens, UniProt P11712); test: Inhibition of CYP2C9 in human liver microsomes using diclofenac as substrate in presence of NADPH by LC/MS/MS analysis; format: ADME
[15] = Half life in cynomolgus monkey liver microsomes by LC/MS/MS analysis; format: ADME, Macaca fascicularis
[16] = target: Cytochrome P450 2D6 (Homo sapiens, UniProt P10635); test: Inhibition of CYP2D6 in human liver microsomes using dextromethorphan as substrate in presence of NADPH by LC/MS/MS analysis; format: ADME
[17] = target: Cytochrome P450 3A4 (Homo sapiens, UniProt P08684); test: Inhibition of CYP3A4 in human liver microsomes using testosterone/midazolam as substrate in presence of NADPH by LC/MS/MS analysis; format: ADME
[18] = Apparent permeability from apical to basolateral side in human Caco2 cells; format: ADME, cell-based; settings: Caco-2
[19] = AUC (0 to 6 hrs) in rat by LC/MS/MS analysis; format: ADME; design: time < 6 hr; settings: in vivo
[20] = Drug metabolism in cynomolgus monkey liver microsomes assessed as methyl group loss from N-methylmethanesulfonamide; format: ADME, Macaca fascicularis
[21] = Drug metabolism in rat liver microsomes assessed as methyl group loss from N-methylmethanesulfonamide; format: ADME
[22] = Drug metabolism in mouse liver microsomes assessed as methyl group loss from N-methylmethanesulfonamide; format: ADME
[23] = Drug metabolism in human liver microsomes assessed as methyl group loss from N-methylmethanesulfonamide; format: ADME

Sequence of Cytochrome P450 2C9 (P11712 whole entry): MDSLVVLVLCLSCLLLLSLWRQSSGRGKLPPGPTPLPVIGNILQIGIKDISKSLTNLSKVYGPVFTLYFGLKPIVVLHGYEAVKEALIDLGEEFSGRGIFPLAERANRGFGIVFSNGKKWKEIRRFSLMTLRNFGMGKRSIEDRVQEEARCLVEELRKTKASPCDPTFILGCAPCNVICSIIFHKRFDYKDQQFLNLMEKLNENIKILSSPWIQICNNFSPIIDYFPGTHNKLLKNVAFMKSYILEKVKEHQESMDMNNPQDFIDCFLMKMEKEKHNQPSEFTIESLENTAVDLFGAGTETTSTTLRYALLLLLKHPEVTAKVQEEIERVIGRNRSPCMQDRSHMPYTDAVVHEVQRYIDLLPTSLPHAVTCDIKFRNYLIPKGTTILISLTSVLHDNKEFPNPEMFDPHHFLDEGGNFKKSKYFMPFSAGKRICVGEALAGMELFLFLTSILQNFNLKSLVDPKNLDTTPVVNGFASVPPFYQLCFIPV
Sequence of Cytochrome P450 2D6 (P10635 whole entry): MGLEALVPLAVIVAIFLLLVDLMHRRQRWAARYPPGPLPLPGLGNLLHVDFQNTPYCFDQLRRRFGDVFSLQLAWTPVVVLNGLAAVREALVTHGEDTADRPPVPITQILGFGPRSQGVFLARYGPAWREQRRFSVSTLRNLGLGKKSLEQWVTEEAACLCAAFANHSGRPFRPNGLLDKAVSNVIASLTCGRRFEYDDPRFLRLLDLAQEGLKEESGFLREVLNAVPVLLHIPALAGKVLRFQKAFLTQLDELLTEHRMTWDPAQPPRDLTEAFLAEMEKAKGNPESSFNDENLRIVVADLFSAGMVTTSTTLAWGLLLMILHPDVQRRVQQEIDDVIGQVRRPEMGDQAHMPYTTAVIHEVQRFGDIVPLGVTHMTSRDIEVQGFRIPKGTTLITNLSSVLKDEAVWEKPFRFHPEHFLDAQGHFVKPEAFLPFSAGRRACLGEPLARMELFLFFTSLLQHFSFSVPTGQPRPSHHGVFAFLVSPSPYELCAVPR
Sequence of Cytochrome P450 2C19 (P33261 whole entry): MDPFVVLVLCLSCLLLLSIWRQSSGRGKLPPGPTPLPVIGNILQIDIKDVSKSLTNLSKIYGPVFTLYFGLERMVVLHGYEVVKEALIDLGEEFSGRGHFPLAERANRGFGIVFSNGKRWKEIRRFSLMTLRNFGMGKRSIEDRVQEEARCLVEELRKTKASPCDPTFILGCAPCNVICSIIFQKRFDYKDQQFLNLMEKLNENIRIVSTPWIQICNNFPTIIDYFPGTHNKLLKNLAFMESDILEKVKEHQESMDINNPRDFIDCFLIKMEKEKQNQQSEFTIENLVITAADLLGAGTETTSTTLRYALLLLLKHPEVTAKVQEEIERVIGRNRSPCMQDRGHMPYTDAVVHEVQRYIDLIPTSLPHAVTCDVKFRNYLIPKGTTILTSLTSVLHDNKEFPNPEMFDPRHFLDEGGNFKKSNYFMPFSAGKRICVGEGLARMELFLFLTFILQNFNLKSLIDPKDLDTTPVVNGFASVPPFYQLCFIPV

half-life [1] [min]	IC50 [2] [nM]	half-life [3] [min]	bioavailability [8] [%]	IC50 [9] [nM]	Structure (SMILES)	IC50 [7] [µM]	further results
6	7	5	–	–	COc1c(Nc2ncc(Cl)c(N[C@H]3[C@@H](C(N)=O)[C@@H]4C=C[C@H]3C4)n2)ccc2c1CCC[C@H](N1CCOCC1)C2	–	–
–	–	–	–	–	COc1c(Nc2ncc(Cl)c(N[C@H]3[C@@H](C(N)=O)[C@H]4C[C@@H]3C3OC34)n2)ccc2c1CC[C@@H](N1CCOCC1)CC2 (stereo partly specified)	–	Drug metabolism [4]: Metabolite_Detected; Drug metabolism [5]: Metabolite_Detected
40	18	40	–	–	COc1c(Nc2ncc(Cl)c(Nc3ccccc3NS(C)(=O)=O)n2)ccc2c1CCCC(N1CCN(CCO)CC1)C2 (racemic)	–	IC50 [6]: > 2 µM
> 40	–	> 40	47	–	CNC(=O)c1ccccc1Nc1nc(Nc2ccc3c(c2OC)CCCC(N2CCN(CCO)CC2)C3)ncc1Cl (racemic)	≥ 10	–
18	5	22	19	50	COc1c(Nc2ncc(Cl)c(Nc3ccccc3-c3nccn3C)n2)ccc2c1CCCC(N1CCN(CCO)CC1)C2 (racemic)	–	–
11	9	39	11	200	COc1c(Nc2ncc(Cl)c(N[C@H]3[C@@H](C(N)=O)[C@@H]4C=C[C@H]3C4)n2)ccc2c1CCCC(N1CCN(C)CC1)C2 (single isomer, unassigned)	7.9	half-life [10]: 40 min; IC50 [11]: > 10 µM; AUC(0-inf) [12]: 5530 ng·h/mL; IC50 [13]: > 10 µM; IC50 [14]: > 10 µM; half-life [15]: 7 min; IC50 [16]: > 10 µM; IC50 [17]: > 10 µM
–	44	–	–	–	COc1ccccc1Nc1nc(Nc2ccc3c(c2OC)CCCC(N2CCN(CCO)CC2)C3)ncc1Cl (racemic)	–	–
5	1.5	5	–	–	COc1c(Nc2ncc(Cl)c(N[C@H]3[C@@H](C(N)=O)[C@@H]4C=C[C@H]3C4)n2)ccc2c1CCC[C@@H](N1CCOCC1)C2	–	–
18	4	40	28	40	COc1c(Nc2ncc(Cl)c(Nc3ccccc3S(=O)(=O)N(C)C)n2)ccc2c1CCCC(N1CCN(CCO)CC1)C2 (racemic)	0.24	–
40	2.3	40	19	20	COc1c(Nc2ncc(Cl)c(Nc3ccccc3-n3cccn3)n2)ccc2c1CCCC(N1CCN(CCO)CC1)C2 (racemic)	3.7	–
16	6.1	38	48	60	COc1c(Nc2ncc(Cl)c(Nc3ccccc3N3CCCS3(=O)=O)n2)ccc2c1CCCC(N1CCN(CCO)CC1)C2 (racemic)	–	–
–	6.3	–	–	50	COc1c(Nc2ncc(Cl)c(N[C@H]3[C@@H](C(N)=O)[C@@H]4C=C[C@H]3C4)n2)ccc2c1CCC[C@@H](N1CCN(CCO)CC1)C2	> 10	–
40	–	40	18	–	CNC(=O)c1ccccc1Nc1nc(Nc2ccc3c(c2OC)CCC[C@@H](N2CCN(CCO)CC2)C3)ncc1Cl	> 10	half-life [10]: 40 min; IC50 [11]: > 5.6 µM; AUC(0-inf) [12]: 1200 ng·h/mL; IC50 [13]: > 5.6 µM; Papp A→B [18]: > 1 ×10⁻⁶ cm/s; IC50 [14]: > 5.6 µM; half-life [15]: 24 min; IC50 [16]: > 5.6 µM
12	2.3	33	9	40	COc1c(Nc2ncc(Cl)c(Nc3ccccc3N(C)S(C)(=O)=O)n2)ccc2c1CCCC(N1CCN(C)CC1)C2 (racemic)	–	AUC(0-t) at 6 h [19]: 1300 ng·h/mL
15	7	31	–	–	COCCNC1CCCc2c(ccc(Nc3ncc(Cl)c(N[C@H]4[C@@H](C(N)=O)[C@@H]5C=C[C@H]4C5)n3)c2OC)C1 (stereo partly specified)	–	–
15	9 to 14	40	11	200	COc1c(Nc2ncc(Cl)c(N[C@H]3[C@@H](C(N)=O)[C@@H]4C=C[C@H]3C4)n2)ccc2c1CCC[C@H](N1CCN(C)CC1)C2	9.1	half-life [10]: 40 min; IC50 [11]: > 10 µM; AUC(0-inf) [12]: 4400 ng·h/mL; IC50 [13]: > 10 µM; IC50 [14]: > 10 µM; half-life [15]: 9 min; IC50 [16]: > 10 µM; IC50 [17]: > 10 µM
18	5.8	15	10	30	COc1c(Nc2ncc(Cl)c(N[C@H]3[C@@H](C(N)=O)[C@@H]4C=C[C@H]3C4)n2)ccc2c1CCC[C@H](N1CCN(CCO)CC1)C2	> 10	–
–	39	–	–	–	COc1c(Nc2ncc(Cl)c(N[C@H]3[C@@H](C(N)=O)[C@@H]4C=C[C@H]3C4)n2)ccc2c1CC(N1CCOCC1)CCC2 (stereo partly specified)	–	IC50 [6]: > 10 µM
13	2	37	38	30	COc1c(Nc2ncc(Cl)c(Nc3ccccc3N(C)S(C)(=O)=O)n2)ccc2c1CCCC(N1CCN(CCO)CC1)C2 (racemic)	–	Drug metabolism [20]: Metabolite_Detected; Drug metabolism [21]: Metabolite_Detected; half-life [10]: 37 min; Drug metabolism [22]: Metabolite_Detected; Drug metabolism [23]: Metabolite_Detected; AUC(0-t) at 6 h [19]: 3960 ng·h/mL; half-life [15]: 8 min
